Reference: patent publication US20220298213A1, “IN VIVO ENGINEERED CEREBLON PROTEIN” (Vividion Therapeutics, Inc., priority 2018, published 2022)
Read-outs that look alike come from different tables or passages of the source.

Columns and labels:
Protein-B = test: Cysteine probe labeling after IMiD pretreatment, PBMC lysates (Table 4); type: binding
Protein-A = details: PBMC lysates
CRBN-287 = CRBN-287 (Homo sapiens, UniProt Q96SW2); test: Cysteine probe labeling after IMiD pretreatment, PBMC lysates (Table 4); type: binding; parameters: endogenous in cells; host or cells: PBMC lysates; details: read-out: inhibition of cysteine probe labeling, CRBN-287
Chain of CRBN-287 (Q96SW2 whole entry): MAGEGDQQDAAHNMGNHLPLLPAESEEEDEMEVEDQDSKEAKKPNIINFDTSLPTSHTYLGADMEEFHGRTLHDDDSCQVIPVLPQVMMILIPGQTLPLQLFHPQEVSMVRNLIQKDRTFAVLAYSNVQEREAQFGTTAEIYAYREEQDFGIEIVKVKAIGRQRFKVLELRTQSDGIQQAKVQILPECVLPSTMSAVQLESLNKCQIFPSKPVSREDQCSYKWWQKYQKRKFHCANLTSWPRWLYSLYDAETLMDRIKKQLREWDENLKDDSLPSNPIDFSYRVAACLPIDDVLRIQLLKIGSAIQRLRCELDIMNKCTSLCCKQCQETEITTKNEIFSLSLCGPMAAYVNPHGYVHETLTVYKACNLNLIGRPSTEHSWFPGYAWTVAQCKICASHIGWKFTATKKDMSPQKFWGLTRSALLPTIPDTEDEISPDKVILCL

Protein-C = test: as above; type: binding
CRBN-318 = CRBN-318 (Homo sapiens, UniProt Q96SW2); test: as above; type: binding; parameters: endogenous in cells; host or cells: PBMC lysates; details: read-out: inhibition of cysteine probe labeling, CRBN-318
Chain of CRBN-318 (Q96SW2 whole entry): as above

O=C1CCC(N2Cc3c(OCc4ccc(CN5CCOCC5)cc4)cccc3C2=O)C(=O)N1 (stereo not drawn) [CC-220]
inhibition of cysteine probe labeling, Protein-B (Protein-B; 2 μM): 23 | inhibition of cysteine probe labeling, Protein-B (Protein-B; 20 μM): 11 | inhibition of cysteine probe labeling, Protein-B (Protein-B; 50 μM): 17 | inhibition of cysteine probe labeling, Protein-A (Protein-A; 2 μM): 16 | inhibition of cysteine probe labeling, Protein-A (Protein-A; 20 μM): 19 | inhibition of cysteine probe labeling, Protein-A (Protein-A; 50 μM): 13 | inhibition at 2 µM (CRBN-287): 75% | inhibition at 20 µM (CRBN-287): 77% | inhibition at 50 µM (CRBN-287): 81% | inhibition of cysteine probe labeling, Protein-C (Protein-C; 2 μM): 0 | inhibition of cysteine probe labeling, Protein-C (Protein-C; 20 μM): 2 | inhibition of cysteine probe labeling, Protein-C (Protein-C; 50 μM): 0 | inhibition at 2 µM (CRBN-318): 70% | inhibition at 20 µM (CRBN-318): 70% | inhibition at 50 µM (CRBN-318): 72%

Nc1cccc2c1C(=O)N(C1CCC(=O)NC1=O)C2=O (stereo not drawn) [Pomalidomide]
inhibition of cysteine probe labeling, Protein-B (Protein-B; 20 μM): 0 | inhibition of cysteine probe labeling, Protein-B (Protein-B; 100 μM): 14 | inhibition of cysteine probe labeling, Protein-B (Protein-B; 500 μM): 0 | inhibition of cysteine probe labeling, Protein-A (Protein-A; 20 μM): 8 | inhibition of cysteine probe labeling, Protein-A (Protein-A; 100 μM): 10 | inhibition of cysteine probe labeling, Protein-A (Protein-A; 500 μM): 13 | inhibition at 100 µM (CRBN-287): 70% | inhibition at 500 µM (CRBN-287): 75% | inhibition of cysteine probe labeling, Protein-C (Protein-C; 20 μM): 10 | inhibition of cysteine probe labeling, Protein-C (Protein-C; 100 μM): 1 | inhibition of cysteine probe labeling, Protein-C (Protein-C; 500 μM): 10 | inhibition at 20 µM (CRBN-318): 59%
